We go through 1 molecule from patent publication US11160798B2, “Neuroprotective CB2 receptor agonists” (THE CLEVELAND CLINIC FOUNDATION, priority 2012, dated 2021).

The structures appear in SMILES notation.

One assay deals with Aβ1-40. Kind of assay: Clearance of Aβ1-40 injected in the hippocampal CA1 area (immunofluorescence). In kind it is in vivo, rat. Particulars: Aβ1-40-injected rats, 15 mg/kg per day for 14 days; hippocampal CA1. As for the experimental part: Animals were divided into several groups ([…]). The Aβ1-40 group received bilateral intracerebral microinjection of Aβ1-40 fibrils once and saline intraperitoneally (i.p.) daily for 14 days. The Aβ1-40+MDA7 group received bilateral intracerebral microinjection of Aβ1-40 fibrils once and 15 mg/kg MDA7 i.p. daily for 14 days. Other cohorts received smaller doses of MDA7 (5 mg/kg or 1.5 mg/kg) i.p. daily for 14 days to determine the dose-response characteristics for MDA7. In other groups, AM630 (a CB2 antagonist) 5 mg/kg i.p. was administered daily for 14 days either alone (Aβ1-40+AM630 group) or 15 min prior to MDA7 (15 mg/kg i.p.) administration (Aβ1-40+MDA7+AM630 group) to rats injected with β1-40 fibrils. MDA7 group and control group received bilateral intracerebral microinjection of artificial cerebrospinal fluid (130 mM NaCl, 2.6 mM KCl. 4.3 mM MgCl2 and 1.8 mM CaCl2) once and 15 mg/kg MDA7 or saline i.p. daily for 14 days, respectively. Intraperitoneal administration of AM630, MDA7 or saline started on the same day after intracerebral microinjection of Aβ1-40. All drugs were prepared coded. Decoding was performed at the end of all experiments.
Microinjection of amyloid fibrils into the hippocampal CA1 area. Rats were anesthetized with sodium pentobarbital (45 mg/kg i.p.) and restrained in a stereotaxic apparatus. Aβ1-40 fibrils were formed as described previously. […]
Immunostaining. […] Three to six sections from each rat were randomly selected and were analyzed using Leica DMLB fluorescence microscope (Leica Microsystems Wetzlar GmbH, Germany) by one investigator, who was blinded to the origin of tissue being examined. Images were quantified using MCID Core software version 7.0 (InterFocus Imaging Ltd, Cambridge, England).

The test system of the next assay is CA1 neurons. Kind of assay: Evoked EPSCs (basal glutamatergic strength) in hippocampal CA1 slices, whole-cell patch clamp. In kind it is in vivo, rat. Here is the method: Animals were divided into several groups (40-50 rats per group). The Aβ1-40 group received bilateral intracerebral microinjection of Aβ1-40 fibrils once and saline intraperitoneally (i.p.) daily for 14 days. The Aβ1-40+MDA7 group received bilateral intracerebral microinjection of Aβ1-40 fibrils once and 15 mg/kg MDA7 i.p. daily for 14 days. Other cohorts received smaller doses of MDA7 (5 mg/kg or 1.5 mg/kg) i.p. daily for 14 days to determine the dose-response characteristics for MDA7. In other groups, AM630 (a CB2 antagonist) 5 mg/kg i.p. was administered daily for 14 days either alone (Aβ1-40+AM630 group) or 15 min prior to MDA7 (15 mg/kg i.p.) administration (Aβ1-40+MDA7+AM630 group) to rats injected with β1-40 fibrils. […]
Whole-cell patch clamp recordings in hippocampal slices. […] The series resistance was optimally compensated by ≥70% and constantly monitored throughout the experiments. […] Excitatory postsynaptic currents (EPSCs) were recorded in the CA1 area in the presence of GABAA antagonist bicuculline (30 μM). The evoked EPSCs were filtered at 2 kHz, digitized at 10 kHz, and acquired and analyzed using Axograph X software. The amplitude of EPSCs was monitored for a baseline period of at least 15 min. […]
For orientation: Patch clamp records ionic current or voltage across a cell membrane.

In the next assay the target is rCB1 (Rattus norvegicus, UniProt P20272). To be noted: cited from earlier work.
Sequence of rCB1 (P20272 whole entry): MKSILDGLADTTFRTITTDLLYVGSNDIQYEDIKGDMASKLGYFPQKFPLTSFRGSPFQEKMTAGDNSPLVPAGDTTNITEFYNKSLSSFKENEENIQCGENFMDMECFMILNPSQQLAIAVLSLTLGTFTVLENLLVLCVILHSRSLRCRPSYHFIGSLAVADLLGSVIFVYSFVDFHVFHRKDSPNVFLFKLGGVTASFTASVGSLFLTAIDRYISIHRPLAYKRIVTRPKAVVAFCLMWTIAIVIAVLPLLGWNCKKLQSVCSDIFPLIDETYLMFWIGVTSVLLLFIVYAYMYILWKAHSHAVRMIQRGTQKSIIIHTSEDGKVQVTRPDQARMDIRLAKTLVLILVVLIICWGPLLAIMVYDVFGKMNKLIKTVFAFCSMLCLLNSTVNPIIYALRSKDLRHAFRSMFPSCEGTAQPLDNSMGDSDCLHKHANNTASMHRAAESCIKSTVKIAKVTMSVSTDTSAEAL

With `CC1(Cc2ccccc2)COc2cc(C(=O)N3CCCCC3)ccc21` (stereo not shown) [MDA7, 3-benzyl-3-methyl-2,3-dihydrobenzofuran-6-carboxylic acid-piperidine amide], in the assay with Aβ1-40, the “clearance of injected Aβ1-40” value is “induced removal of Aβ1-40”. In addition, the “amplitude of evoked EPSCs in CA1 neurons” value in the assay with CA1 neurons (Aβ1-40-injected rats, 15 mg/kg i.p. for 14 days, all three stimulus intensities) is listed as “restored”. The “basal glutamatergic strength, treatment alone” value in the assay with CA1 neurons (MDA7 group (no Aβ1-40) vs control group) is reported as “not different”. Further, the “EC50 at rCB1” value on rCB1 is “not active”.
